Assay results published in US7807162B2, “Single domain VHH antibodies against von Willebrand factor” (Ablynx N.V., priority 2005, dated 2010).
“And” between values parts separate entries of the source, which are not always exact repeats. Equal values may be shown once.

Assays:
ADAMTS-13 [1] = experiment: Cleavage of ULvWF platelet strings by ADAMTS-13 (perfusion assay); assay type: cell-based, human
Description: ADAMTS-13 reduces the size of large and ultralarge VWF multimers to smaller forms by specifically cleaving the Y842/M843 peptide bond in the VWF A2 domain.
In a first experiment, strings were generated by a 4 minute perfusion of washed platelets resuspended in buffer over histamine-stimulated endothelial cells. Subsequently, the non-adhered platelets were washed away by a 4 minute perfusion of buffer. After that, buffer was perfused for an other 4 minutes, followed by a 4 minute perfusion of pooled normal plasma containing ADAMTS-13. Detachment of the platelet strings was observed after perfusion of pooled normal plasma (FIG. 43). More than 95% of the strings were cleaved after the 4 minute perfusion.
In a next experiment, strings were generated by a 4 minute perfusion of washed platelets resuspended in buffer over histamine-stimulated endothelial cells and the non-adhered platelets were washed away by a 4 minute perfusion of buffer as above.

[2] = system: cyclic flow reductions (CFRs) in injured, stenosed femoral artery; experiment: Use of vWF as an antidote for ALX-0081 in the baboon Folts model; assay type: in vivo, baboon (Papio ursinus)
Text: The experimental procedure followed the original Folts model with the modifications as described in the previous example 18.
Healthy male baboons (Papio ursinus) were used in this study. The animals were 9-12 kg of weight and were disease-free for at least 2 weeks prior to use. The baboons were fed with dry standard food only.

ADAMTS-13 [3] = experiment: Cleavage of recombinant A1-A2-A3 vWF fragment by ADAMTS-13 (Western Blot); assay type: biochemical, human; settings: 10 μg/ml; normal pool plasma
Description: In a second type of experiment, different reaction mixtures were prepared as summarized in table 60, however, without the addition of the A1A2A3 construct. The A1A2A3 construct is a recombinant fragment consisting out of the A1, A2 and A3 domain of vWF. Mixtures were pre-incubated for 5 minutes at 37° C. after which the A1A2A3 fragment is added and the mixture is incubated in a waterbath overnight at 37° C. […] The blot was blocked for 2 hours at room temperature with blockbuffer (1:1 Odyssey blockbuffer in 1×TBS pH=7.4) and incubated with Rabbit polyclonal anti-vWF (DAKO). Alexa Fluor 680 goat anti-rabbit was used for detection. Scanning was done on the ODYSSEY to detect the degradation products.
In a second assay, a recombinant fragment containing the A1-A2-A3 domain of vWF was mixed with normal pool plasma (NPP) containing ADAMTS-13, resulting in proteolytic cleavage of the fragment which was observed by a Western Blot analysis.

[4] = system: ristocetin-induced platelet aggregation; experiment: Ristocetin-induced platelet aggregation (RIPA) ex vivo in blood of treated baboons
Description: Platelet aggregations were performed on a Chronolog whole blood and optical Aggregometer (Model 560CA, Chronolog, USA). PRP was prepared (collected on 0.38 mol/L citrate), by centrifuging the whole blood at 1200 rpm for 5 minutes. The upper fraction containing the PRP was carefully removed. The lower fraction was further centrifuged at 3000 rpm for 10 minutes to prepare platelet poor plasma (PPP). Platelets were counted in PRP and diluted in PPP to a final concentration of 200.000 platelets per microliter. 3 mg/ml ristocetin (DAKO) was added and aggregation was measured.
The GPIb-IX-V dependent platelet aggregation through vWF is measured using ristocetin as a modulator. The % aggregation is measured at each time point and at each dose.

[5] = system: cyclic flow reductions (CFRs) in injured, stenosed femoral artery; experiment: Folts model in baboons: Aspegic-Heparin-Plavix combination with ALX-0081 on top; assay type: in vivo, baboon (Papio ursinus)
Description: Extra Heparin was administered at different time points to sustain a certain level (aPTT should be at least doubled versus control). […] The anti-thrombotic effect was quantified by comparing the length of CFRs before and after drug administration. When full inhibition of CFRs was observed, a new injury was applied. Epinephrin was injected and continued till the end of the experiment. […] (1), 3, 10 or 30 μg/kg. […] The specifications of the baboons that were used in this study are represented in table 49.

[6] = system: cyclic flow reductions (CFRs) in injured, stenosed femoral artery; experiment: Folts thrombosis model in baboons: length/inhibition of cyclic flow reductions (CFRs); assay type: in vivo, baboon (Papio ursinus); settings: for Length of CFRs: individual baboons 16-24; for effective dose: Folts model
Description: The study protocol that was applied is the original Folts model and some modifications described below (Folts J D, et al, Circulation. 1976; 54:365-370). Healthy male or female baboons (Papio ursinus) were used. The animals were 8-17 kg of weight and were disease-free for at least 2 weeks prior to use. The baboons were fed with dry standard food only. The baboons were used at different time points. […] Animals were anaesthetized and body temperature is maintained at 37° C. with a heating table. A segment of a femoral artery was dissected free from surrounding tissue. A shunt was placed between the femoral vein and femoral artery to obtain high shear rates. The mean and phasic blood flow was recorded continuously throughout the experiment. Baseline flow was recorded for 20 minutes. […] A clamp was placed over the injured site to create an external stenosis. A gradual decline in blood flow due to platelet adhesion and aggregation was observed. When flow was reduced to zero, blood flow was restored by opening the clamp to dislodge the platelet-rich thrombus. This repetitive pattern of decreasing blood flow following mechanical restoration is referred to as cyclic flow reductions (CFRs). Additional endothelial injury was repeated if needed to finally obtain stable CFRs in these baboons. The number of times the thrombus needed to be dislodged determines the number of CFRs. FIG. 24 illustrates blood flow pattern during the Folts model in baboons. […] This procedure was repeated for several times with escalating doses of the test substance. The anti-thrombotic effect was quantified by comparing the length of CFRs before and after drug administration. When full inhibition of CFRs was observed, a new injury was applied in order to confirm that the inhibition was an effect of the treatment but not of a natural healing phenomenon.

[7] = number of experiments with inhibition / total number of independent repeats

## ALX-0081: ALX-0081 (SEQ ID NO:98), Nanobody; humanised bivalent nanobody with the 3a linker
ADAMTS-13 [1]; ALX-0081 10 μg/ml
  effect on the cleavage of ULvWF strings by ADAMTS-13: does not have an effect
ADAMTS-13 [1]; ALX-0081 10 μg/ml (10-fold molar excess over vWF)
  strings cleaved after the 4 minute perfusion of pooled normal plasma: 95%
[2]; 30 μg/kg + 45 μg/kg/hour ALX-0081, baboons 1-3
  Length of CFRs: >1800 s
[2]; all three baboons, bolus followed by 45 μg/kg/hour
  dose at which full inhibition of CFRs was obtained: 0.03 mg/kg
[2]; at 30 μg/kg+45 μg/kg/hour ALX-0081
  CFRs upon a new injury: the CFRs did not return
ADAMTS-13 [3]
  effect on the cleavage of the A1-A2-A3 vWF fragment by ADAMTS-13: no effect
[4]; 3 mg/ml ristocetin
  relation between RIPA and the length of the CFRs: inverse relation
[4]; baboons 16, 18, 19 and 23
  dose for full inhibition in RIPA versus full inhibition of CFRs: full inhibition in the RIPA test is obtained at lower doses than full inhibition of CFRs
[5]; at the effective dose of ALX-0081 on top of the combination
  CFRs upon a new injury: the CFRs did not return
[5]; on top of Aspegic, Heparin, Plavix, continued Epinephrin infusion, all seven baboons
  dose at which full inhibition of the CFRs was obtained: 0.03 mg/kg
[5]; on top of Aspegic/Heparin/Plavix combination: Epinephrin + effective dose ALX-0081, individual baboons 4-10
  Length of CFRs: >1800 s
[6]; ALX-0081-treated, after Epinephrin
  Length of CFRs: >1200 s (2×) and >900 s (7×)
[6]; ALX-0081 final dose 3 μg/kg
  Length of CFRs: 295 s and 193 s and 144 s and 133 s and 183 s and 312 s and 112 s
[6]; ALX-0081 final dose 13 μg/kg
  Length of CFRs: 380 s and 913 s and >1800 s (2×) and 298 s and 237 s and 620 s and 525 s and 213 s
[6]; ALX-0081 final dose 43 μg/kg
  Length of CFRs: >1800 s
[6]; ALX-0081 final dose 133 μg/kg
  Length of CFRs: >1800 s
[6]
  effective dose: 30 µg/kg
[6]; inhibition of CFRs, final dose, ALX-0081: + […] dose/kg/hour
  effective dose: 13-43 μg/kg +
[6]; all baboons (nine)
  final dose at which full inhibition of CFRs was obtained: 0.043 mg/kg
[6]; all baboons (nine), bolus followed by 45 μg/kg/hour infusion
  dose at which full inhibition of CFRs was obtained: 0.03 mg/kg
[6]; baboons 17 and 22, bolus followed by 15 μg/kg/hour infusion
  dose at which full inhibition of CFRs was already obtained: 0.01 mg/kg
[6]; new injury applied at full inhibition of CFRs
  CFRs upon a new injury: Inhibition was retained
[6]; [7]
  Inhibition of CFRs: 9/9
  Inhibition of CFRs after administration of Epinephrin: 9/9
  Inhibition of CFRs after new injury: 9/9
